Ratio data for 17 compounds are collected here from ChEMBL document CHEMBL3272338, “Bis-basic-substituted polycyclic aromatic compounds. A new class of antiviral agents. 8. Bis-basic derivatives of carbazole, dibenzofuran, and dibenzothiophene” (1977).

Holding throughout (assay type): functional
Test [1] deals with Encephalomyocarditis virus. In words: Antiviral activity against Encephalomyocarditis virus infected in CF-1 mouse assessed as host survival time ratio at 50 mg/kg, po administered via gavage at 28, 22, 2 hrs before and 2 hrs after virus inoculation.
In test [2] the test system is Encephalomyocarditis virus. In words: Antiviral activity against Encephalomyocarditis virus infected in CF-1 mouse assessed as host survival time ratio at 250 mg/kg, sc administered 28, 22, 2 hrs before and 2 hrs after virus inoculation. Particulars: route subcutaneous.
Test [3] concerns Encephalomyocarditis virus. In words: Antiviral activity against Encephalomyocarditis virus infected in CF-1 mouse assessed as host survival time ratio at 250 mg/kg, po administered via gavage as single dose at 22 to 28 hrs before virus inoculation.
For test [4], the system named is Encephalomyocarditis virus. In words: Antiviral activity against Encephalomyocarditis virus infected in CF-1 mouse assessed as host survival time ratio at 50 mg/kg, sc administered 28, 22, 2 hrs before and 2 hrs after virus inoculation. Particulars: route subcutaneous.
Test [5] has as its system Encephalomyocarditis virus. In words: Antiviral activity against Encephalomyocarditis virus infected in CF-1 mouse assessed as host survival time ratio at 10 mg/kg, sc administered 28, 22, 2 hrs before and 2 hrs after virus inoculation. Particulars: route subcutaneous.

As to `Cl.c1cc2oc3ccc(OCCCN4CCCCC4)cc3c2cc1OCCCN1CCCCC1`, the Ratio in test [1] was determined as 1.02; in test [2] it was 0.63; in test [3] it was 1.02; in test [4], 1.44; in test [5], 1.46.
Consider `CCN(CC)CCOC(=O)c1ccc2oc3ccc(C(=O)OCCN(CC)CC)cc3c2c1.Cl`, for which the Ratio in test [1] turned out to be 1.02; in test [2] it was 1.09; in test [3], 0.98; in test [4], 1.02; in test [5], 1.
As for `CN(C)CCCCC(C)(C)COC(=O)c1ccc2c(c1)sc1ccc(C(=O)OCC(C)(C)CCCN(C)C)cc12.Cl`, the results for the Ratio in test [2], in test [4] and in test [5] were 1.11, 1.42 and 1.07, respectively.
As to `CCCCN(CCCC)CCCNC(=O)c1ccc2oc3ccc(C(=O)NCCCN(CCCC)CCCC)cc3c2c1.O=C(O)CC(O)(CC(=O)O)C(=O)O`, the Ratio in test [2] was found to be 0.85; in test [4] it was 1.24; in test [5], 1.17.
In the same order, the values of `CCN(CC)CCOC(=O)c1ccc2c(c1)sc1ccc(C(=O)OCCN(CC)CC)cc12.Cl` are 1.2, 1.04 and 1.14.
`Cl.O=C(OCCCN1CCCCC1)c1ccc2c(c1)sc1ccc(C(=O)OCCCN3CCCCC3)cc12`: the Ratio in test [2] turned out to be 1.55; in test [4], 1.36; in test [5], 1.4.
As for `O=C(CCCN1CCCCC1)c1ccc2oc3ccc(C(=O)CCCN4CCCCC4)cc3c2c1`, the Ratio in test [1] is 1.06; in test [2], 1.81; in test [3] it was 1.19; in test [4] it was 1.49.
Consider `CCn1c2ccc(CCCCN3CCCCC3)cc2c2cc(CCCCN3CCCCC3)ccc21.Cl`, for which the Ratio is 0.57 in test [2], 1.45 in test [4] and 1.28 in test [5].
For `CCN(CC)CCCOC(=O)c1ccc2oc3ccc(C(=O)OCCCN(CC)CC)cc3c2c1.Cl`, the Ratio was found to be 1.22 in test [2] and 1.19 in test [4].
In the case of `CC(C)CCN(CCCOC(=O)c1ccc2oc3ccc(C(=O)OCCCN(CCC(C)C)CCC(C)C)cc3c2c1)CCC(C)C`, the Ratio stood at 1.11 in test [2], 1.07 in test [4] and 0.91 in test [5].
Consider `CCN(CC)CCCCc1ccc2c(c1)c1cc(CCCCN(CC)CC)ccc1n2CC.Cl`, for which the Ratio in test [1] was determined as 0.98; in test [3], 1.17; in test [4] it was 1.22; in test [5] it was 1.22.
In the case of `CCCN(CCC)CCCOC(=O)c1ccc2oc3ccc(C(=O)OCCCN(CCC)CCC)cc3c2c1.Cl`, the Ratio in test [2] was 1.88; in test [4], 1.21; in test [5], 0.96.
For the compound `CCN(CC)CCCOC(=O)c1ccc2sc3ccc(C(=O)OCCCN(CC)CC)cc3c2c1.Cl`, the Ratio in test [2] was determined as 1.3; in test [4] it was 1.77.
Turning to `C=CCN(CC=C)CCCOC(=O)c1ccc2oc3ccc(C(=O)OCCCN(CC=C)CC=C)cc3c2c1.Cl`, the Ratio is 1.33 in test [2], 1.2 in test [4] and 1.11 in test [5].
Regarding `CC(C)CCN(CCCOC(=O)c1ccc2c(c1)sc1ccc(C(=O)OCCCN(CCC(C)C)CCC(C)C)cc12)CCC(C)C.Cl`, the Ratio stood at 1.11 in test [2], 0.98 in test [4] and 0.96 in test [5].
For `CCN(CC)CCCOC(=O)c1ccc2c(c1)c1cc(C(=O)OCCCN(CC)CC)ccc1n2CC.Cl`, the Ratio stood at 1.87 in test [2], 0.75 in test [3], 1.74 in test [4] and 1.33 in test [5].
For the compound `CCCCN(CCCC)CCCOC(=O)c1ccc2oc3ccc(C(=O)OCCCN(CCCC)CCCC)cc3c2c1.Cl`, the results for the Ratio in test [2], in test [4] and in test [5] were 1.6, 1.4 and 1.06, respectively.
